One test has as its target T1, Aurora-2 (Aurora A) (Homo sapiens, UniProt O14965).
T1 sequence (O14965 1-403): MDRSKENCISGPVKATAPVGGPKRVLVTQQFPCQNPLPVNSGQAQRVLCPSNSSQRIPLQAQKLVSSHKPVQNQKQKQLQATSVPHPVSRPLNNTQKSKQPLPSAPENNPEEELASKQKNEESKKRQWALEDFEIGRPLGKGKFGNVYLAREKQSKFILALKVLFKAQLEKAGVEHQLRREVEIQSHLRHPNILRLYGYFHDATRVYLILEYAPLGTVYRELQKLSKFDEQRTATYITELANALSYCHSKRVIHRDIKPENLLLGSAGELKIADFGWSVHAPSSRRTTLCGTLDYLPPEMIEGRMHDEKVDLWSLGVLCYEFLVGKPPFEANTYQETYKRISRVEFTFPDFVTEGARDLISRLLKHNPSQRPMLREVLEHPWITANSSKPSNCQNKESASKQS
Nature of the test: Aurora-2 (Aurora A) inhibition assay, coupled enzyme. The format is biochemical. As to the method: Assays were carried out in a mixture of 100 mM Hepes (pH7.5), 10 mM MgCl2, 1 mM DTT, 25 mM NaCl, 2.5 mM phosphoenolpyruvate, 300 μM NADH, 30 μg/ml pyruvate kinase and 10 μg/ml lactate dehydrogenase. […] Assays were carried out at 30° C. and in the presence of 40 nM Aurora-2.
An assay stock buffer solution was prepared containing all of the reagents listed above, with the exception of Aurora-2 and the test compound of interest. […] The plate was preincubated for 10 minutes at 30° C. and the reaction initiated by addition of 10 μl of Aurora-2. Initial reaction rates were determined with a Molecular Devices SpectraMax Plus plate reader over a 10 minute time course. IC50 and Ki data were calculated from non-linear regression analysis using the Prism software package (GraphPad Prism version 3.0cx for Macintosh, GraphPad Software, San Diego Calif., USA).

In a further test the target is Aurora-1 (Aurora B) (Homo sapiens, UniProt Q96GD4). Nature of the test: Aurora-1 (Aurora B) inhibition assay (radiometric). The format is biochemical. Particulars: 800 μM ATP; read-out: Aurora B Ki. How it is done: An assay buffer solution was prepared which consisted of 25 mM HEPES (pH 7.5), 10 mM MgCl2, 0.1% BSA and 10% glycerol. […] To 22 μL of the Aurora-B solution, in a 96-well plate, was added 2 μl of a compound stock solution in DMSO and the mixture allowed to equilibrate for 10 minutes at 25° C. The enzyme reaction was initiated by the addition of 16 μl stock [γ-^33P]-ATP solution (˜20 nCi/μL) prepared in assay buffer, to a final assay concentration of 800 μM. The reaction was stopped after 3 hours by the addition of 16 μL 500 mM phosphoric acid and the levels of ^33P incorporation into the peptide substrate were determined by the following method.
Aurora-1 (Aurora B), sequence (Q96GD4 whole entry): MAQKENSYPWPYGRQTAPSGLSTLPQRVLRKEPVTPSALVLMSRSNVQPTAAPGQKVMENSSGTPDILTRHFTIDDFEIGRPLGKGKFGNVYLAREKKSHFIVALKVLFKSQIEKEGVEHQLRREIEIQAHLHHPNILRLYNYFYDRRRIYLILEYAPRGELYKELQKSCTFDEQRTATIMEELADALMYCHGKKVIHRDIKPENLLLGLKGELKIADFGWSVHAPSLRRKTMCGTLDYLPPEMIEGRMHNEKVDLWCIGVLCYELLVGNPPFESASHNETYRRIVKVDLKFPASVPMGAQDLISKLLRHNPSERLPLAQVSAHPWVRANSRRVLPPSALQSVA
A phosphocellulose 96-well plate (Millipore, Cat no. MAPHNOB50) was pre-treated with 100 μL of a 100 mM phosphoric acid prior to the addition of the enzyme reaction mixture (40 μL). The solution was left to soak on to the phosphocellulose membrane for 30 minutes and the plate subsequently washed four times with 200 μL of a 100 mM phosphoric acid. […] Levels of non-enzyme catalyzed background radioactivity were determined by adding 16 μL of the 500 mM phosphoric acid to control wells, containing all assay components (which acts to denature the enzyme), prior to the addition of the [γ-^33P]-ATP solution. Levels of enzyme catalyzed ^33P incorporation were calculated by subtracting mean background counts from those measured at each inhibitor concentration. […] Ki values were calculated from initial rate data by non-linear regression using the Prism software package (Prism 3.0, Graphpad Software, San Diego, Calif.).

The test system of the next test is Colo205 cells. Nature of the test: Colo205 cell proliferation, 3H thymidine incorporation. The format is cell-based. The following applies: Homo sapiens. How it is done:
Colo205 cells were seeded in 96 well plates and serially diluted compound was added to the wells in duplicate. Control groups included untreated cells, the compound diluent (0.1% DMSO alone) and culture medium without cells.
To measure proliferation, 3 h prior to the end of the experiment 0.5 μCi of 3H thymidine was added to each well. Cells were then harvested and the incorporated radioactivity counted on a Wallac microplate beta-counter. Cell viability was assessed using Promega CellTiter 96AQ to measure MTS conversion. Dose response curves were calculated using either Prism 3.0 (GraphPad) or SoftMax Pro 4.3.1 LS (Molecular Devices) software.

In test [1] the target is N-terminally truncated (Δ 27) Abl kinase (Homo sapiens, UniProt P00519). Nature of the test: Abl kinase activity inhibition assay, coupled enzyme. The format is biochemical. As to the method: Reactions were carried out in a solution containing 100 mM HEPES (pH 7.5), 10 mM MgCl2, 25 mM NaCl, 300 μM NADH, 1 mM DTT and 3% DMSO. […] Final concentrations of the components of the coupled enzyme system were 2.5 mM phosphoenolpyruvate, 200 μM NADH, 60 μg/ml pyruvate kinase and 20 μg/ml lactate dehydrogenase.
N-terminally truncated (Δ 27) Abl kinase, sequence (P00519 28-1130 limits assumed, stated change not applied): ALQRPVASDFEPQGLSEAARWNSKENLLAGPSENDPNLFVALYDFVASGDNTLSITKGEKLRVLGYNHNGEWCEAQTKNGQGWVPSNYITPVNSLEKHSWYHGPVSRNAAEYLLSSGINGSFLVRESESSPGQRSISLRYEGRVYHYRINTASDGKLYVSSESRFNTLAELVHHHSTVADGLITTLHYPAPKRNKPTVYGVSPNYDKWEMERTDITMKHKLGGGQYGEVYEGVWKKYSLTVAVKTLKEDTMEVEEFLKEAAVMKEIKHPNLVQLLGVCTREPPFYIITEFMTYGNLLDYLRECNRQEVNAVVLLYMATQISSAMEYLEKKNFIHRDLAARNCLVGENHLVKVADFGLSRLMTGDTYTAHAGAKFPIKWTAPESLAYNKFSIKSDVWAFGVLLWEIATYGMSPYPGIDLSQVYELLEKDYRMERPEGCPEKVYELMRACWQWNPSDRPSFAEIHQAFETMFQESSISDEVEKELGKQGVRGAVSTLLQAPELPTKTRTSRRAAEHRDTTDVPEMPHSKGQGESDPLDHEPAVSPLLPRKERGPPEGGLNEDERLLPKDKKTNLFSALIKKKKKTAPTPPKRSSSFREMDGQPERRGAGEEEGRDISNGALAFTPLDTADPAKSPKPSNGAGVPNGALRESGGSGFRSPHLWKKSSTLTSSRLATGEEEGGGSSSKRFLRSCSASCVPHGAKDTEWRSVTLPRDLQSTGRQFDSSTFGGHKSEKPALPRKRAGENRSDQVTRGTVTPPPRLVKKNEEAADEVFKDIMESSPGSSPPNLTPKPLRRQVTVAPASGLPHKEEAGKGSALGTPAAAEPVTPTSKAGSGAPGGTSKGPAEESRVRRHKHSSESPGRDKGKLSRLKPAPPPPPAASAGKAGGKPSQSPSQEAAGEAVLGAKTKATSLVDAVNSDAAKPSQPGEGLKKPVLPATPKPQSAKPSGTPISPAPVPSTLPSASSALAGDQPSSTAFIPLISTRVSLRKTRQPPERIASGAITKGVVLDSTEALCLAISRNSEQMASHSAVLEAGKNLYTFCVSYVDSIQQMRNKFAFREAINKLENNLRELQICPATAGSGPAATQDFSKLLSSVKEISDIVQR
An assay stock buffer solution was prepared containing all of the reagents listed above with the exception of ATP and the test compound of interest. […] Rates of reaction were obtained using a Molecular Devices Spectramax plate reader (Sunnyvale, Calif.) over 10 min at 30° C. The Ki values were determined from the residual rate data as a function of inhibitor concentration using nonlinear regression (Prism 3.0, Graphpad Software, San Diego, Calif.).

A further test concerns the target Arg (Abl-2) (Homo sapiens, UniProt P42684). The test can be described thus: Arg (Abl-2) inhibition screen. The following applies: Table 5; ATP at or close to Km. The format is biochemical. From the text:
(§1) Compound(s) were screened for their ability to inhibit Arg (Abl-2), FGFR1, MLK1, Tie2, and TrkA using screening methods known to one of ordinary skill in the art. All of the above enzymes were screened with ATP concentrations at or close to the Km for ATP.

In another test the target is FGFR1 (Homo sapiens, UniProt P11362). Nature of the test: FGFR1 inhibition screen. The format is biochemical. Particulars: Table 5; ATP at or close to Km.
FGFR1, sequence (P11362 22-822, species assumed): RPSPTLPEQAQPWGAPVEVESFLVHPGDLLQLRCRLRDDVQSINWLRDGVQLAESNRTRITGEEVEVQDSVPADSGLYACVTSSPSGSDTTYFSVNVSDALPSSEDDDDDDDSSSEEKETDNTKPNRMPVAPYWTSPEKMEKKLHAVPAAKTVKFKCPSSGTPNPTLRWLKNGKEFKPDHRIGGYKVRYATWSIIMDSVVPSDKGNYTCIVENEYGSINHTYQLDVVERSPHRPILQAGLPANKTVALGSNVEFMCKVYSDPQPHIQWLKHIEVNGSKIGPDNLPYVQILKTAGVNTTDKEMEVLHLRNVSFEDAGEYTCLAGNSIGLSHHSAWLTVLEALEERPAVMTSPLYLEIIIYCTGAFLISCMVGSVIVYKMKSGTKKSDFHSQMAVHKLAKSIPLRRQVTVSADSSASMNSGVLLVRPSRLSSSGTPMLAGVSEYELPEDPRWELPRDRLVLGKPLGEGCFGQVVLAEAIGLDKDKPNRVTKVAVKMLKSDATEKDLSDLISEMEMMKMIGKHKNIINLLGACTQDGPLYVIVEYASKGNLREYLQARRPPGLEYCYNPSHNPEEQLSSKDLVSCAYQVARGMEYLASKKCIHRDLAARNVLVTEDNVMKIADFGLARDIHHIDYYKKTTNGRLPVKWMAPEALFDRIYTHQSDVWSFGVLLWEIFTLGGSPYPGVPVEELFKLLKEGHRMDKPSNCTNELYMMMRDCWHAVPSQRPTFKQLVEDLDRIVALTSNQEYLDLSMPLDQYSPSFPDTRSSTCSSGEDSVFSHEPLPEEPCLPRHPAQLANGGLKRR
Excerpt: as §1

Setting [2] is: 400 μM ATP, 40 nM Aurora-2, read-out: Aurora A Ki.
Setting [3] is: COLO 205, read-out: Colo205 inh 3H-Thy incorporation after 72 hours IC50 (uM).
Where [4] appears, read: COLO 205, read-out: Colo205 inh 3H-Thy incorporation after 96 hours IC50 (uM).

Like-named read-outs stand apart in the source and are kept apart here.

Arg (Abl-2), sequence (P42684 whole entry, species assumed): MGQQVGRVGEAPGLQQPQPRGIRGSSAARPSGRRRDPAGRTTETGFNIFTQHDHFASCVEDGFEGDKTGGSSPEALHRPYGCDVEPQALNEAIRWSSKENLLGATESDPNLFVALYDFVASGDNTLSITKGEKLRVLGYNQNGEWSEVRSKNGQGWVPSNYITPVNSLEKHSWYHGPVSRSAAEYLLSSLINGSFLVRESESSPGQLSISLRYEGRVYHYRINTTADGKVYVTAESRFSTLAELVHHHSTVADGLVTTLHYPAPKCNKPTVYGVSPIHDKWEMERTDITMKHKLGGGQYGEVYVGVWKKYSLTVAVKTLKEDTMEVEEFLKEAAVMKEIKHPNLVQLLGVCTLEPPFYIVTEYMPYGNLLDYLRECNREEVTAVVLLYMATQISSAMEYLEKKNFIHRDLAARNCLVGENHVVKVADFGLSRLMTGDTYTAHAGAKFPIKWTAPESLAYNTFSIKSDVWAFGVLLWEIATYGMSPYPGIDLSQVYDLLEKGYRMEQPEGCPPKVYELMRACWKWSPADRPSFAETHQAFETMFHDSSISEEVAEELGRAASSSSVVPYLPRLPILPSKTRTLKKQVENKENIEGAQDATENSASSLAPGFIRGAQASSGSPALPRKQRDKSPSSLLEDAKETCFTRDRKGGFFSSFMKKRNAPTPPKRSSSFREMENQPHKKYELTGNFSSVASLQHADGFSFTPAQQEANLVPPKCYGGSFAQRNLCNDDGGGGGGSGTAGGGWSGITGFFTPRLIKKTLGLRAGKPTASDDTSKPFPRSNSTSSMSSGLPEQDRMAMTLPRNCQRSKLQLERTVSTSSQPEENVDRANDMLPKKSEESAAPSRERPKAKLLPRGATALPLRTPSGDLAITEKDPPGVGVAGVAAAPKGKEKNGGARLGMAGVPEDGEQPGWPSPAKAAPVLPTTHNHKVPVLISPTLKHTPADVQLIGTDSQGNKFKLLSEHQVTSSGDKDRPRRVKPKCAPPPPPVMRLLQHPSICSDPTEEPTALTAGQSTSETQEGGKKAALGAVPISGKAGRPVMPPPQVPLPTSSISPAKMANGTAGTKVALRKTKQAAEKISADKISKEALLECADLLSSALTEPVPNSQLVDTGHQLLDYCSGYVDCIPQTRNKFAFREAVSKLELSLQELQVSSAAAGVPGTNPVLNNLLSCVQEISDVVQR

The Ki is the dissociation constant of the complex between target and ligand, obtained from inhibition or displacement. For the compound `CCC(=O)Nc1ccc(Sc2nc(Nc3cc(C)[nH]n3)cc(N3CC(F)(C4CC4)C3)n2)cc1` [Compound I-16], the Ki on Aurora-2 (Aurora A) (setting [2]) was 0.001 µM; at Aurora-1 (Aurora B) it was 0.024 µM; in test [1], 0.17 µM. In the test with Colo205 cells (setting [3]), the IC50 stood at 0.051 µM.

Take `Cc1cc(Nc2cc(N3CC(F)(C4CC4)C3)nc(Sc3ccc(NC(=O)C4(C(F)(F)F)CC4)cc3)n2)[nH]n1` [Compound I-15]: the Ki on Aurora-2 (Aurora A) (setting [2]) stood at 0.0004 µM; at Aurora-1 (Aurora B) it was 0.0096 µM; in test [1], 0.057 µM. For the same compound, the IC50 in the test on Colo205 cells (setting [3]) came to 0.026 µM.

As to `CCC(=O)Nc1ccc(Sc2nc(Nc3cc(C)n[nH]3)cc(N3CC(O)(CC)C3)n2)cc1` [Compound I-4], the values for the Ki at Aurora-2 (Aurora A) (setting [2]) and on Aurora-1 (Aurora B) were 0.0017 µM and 0.015 µM, respectively. Besides, in the test on Colo205 cells (COLO 205, Colo205 cells, 96 hours, read-out: Colo205 inh 3H-Thy incorporation after 96 hours IC50), the IC50 was found to be 0.092 µM.

Consider `CCC(=O)Nc1ccc(Sc2nc(Nc3cc(C)n[nH]3)cc(N3CC(O)(CC(C)(C)C)C3)n2)cc1` [Compound I-1], for which the values for the Ki at Aurora-2 (Aurora A) and at Aurora-1 (Aurora B) were 0.0004 µM and 0.007 µM, respectively. For the same compound, the IC50 with Colo205 cells (setting [4]) amounted to 0.047 µM.

As to `Cc1cc(Nc2cc(N3CC(F)(C4CC4)C3)nc(Sc3ccc(NC(=O)CCC(F)(F)F)cc3)n2)[nH]n1` [Compound I-17], the Ki at Aurora-2 (Aurora A) (setting [2]) stood at 0.00062 µM; at Aurora-1 (Aurora B), 0.012 µM; in test [1], 0.022 µM. For the same compound, the IC50 with Colo205 cells (setting [3]) stood at 0.026 µM; with Colo205 cells (setting [4]) it was 0.019 µM; at Arg (Abl-2), 0.21 µM; against FGFR1, 0.088 µM.
